Source: patent publication US20220072165A1, “RADIODRUG FOR DIAGNOSTIC/THERAPEUTIC USE IN NUCLEAR MEDICINE AND RADIO-GUIDED MEDICINE” (UNIVERSITÀ DEGLI STUDI DI ROMA "LA SAPIENZA", priority 2019, published 2022)
Blank lines part the entries; values can stand above or below the molecule they belong to.

How the values were obtained:
[1] = molecular target: T1, norepinephrine transporter (NET) (Homo sapiens, UniProt P23975); test: competition with ^3H-NE for uptake by SK-N-SH cells; type: cell-based; settings: for inhibition of the uptake/internalization of ^3H-NE (competition with ^3H-NE): 1 hour, tested up to 100 μM; for substrate of NET compared with MIBG: competition with ^3H-NE
T1 construct: human neuroblastoma cells SK-N-SH, which are known to express the transporter NET in large quantity; host or cells: SK-N-SH human neuroblastoma cells
From the text: The ability of the ^89Y-DOTA-BG chelate (1a, MC4324) (non-radioactive analogue of the compound of Formula II, 1 or MC4324) to act as substrate of NET has been evaluated in competition experiments with the tritiated endogenous substrate ^3H-NE for the uptake by the human neuroblastoma cells SK-N-SH, which are known to express the transporter NET in large quantity. […] This provides the ability to prepare radio-marked versions of the chelate of Formula II (or MC4324) with an even low specific activity, because the absence of competition for NET between the chelate (MC4324) and the free binder 9 (MC4325) doesn't compromise the bonding ability to NET of the chelate (compound of Formula II, MC4324) also in the presence of an excess of free binder 9 (MC4325).
FIG. 3 depicts the competition of the ^89Y-DOTA-BG chelate (1a, MC4324) (non-radioactive analogue of the compound of Formula II, 1 or MC4324) and of free binder 9 (MC4325) with ^3H-NE (50 nM, 1 hour incubation, T=37° C.) for the uptake by the SK-N-SH cells. ^1H-NE a 20 μM and MIBG @ 2 μM have been used as positive controls.
^3H-NE has been purchased from Perkin Elmer. To measure the initial cell uptake speeds of ^3H-NE, the cells have been grown for 16 hours in the presence of serum only, then incubated with binder medium (EMEM containing 0.2% BSA and 20 mM Hepes, pH 7.5) for 10 minutes by heating in a water bath at 37° C. The bond has been initiated by adding 0.5 ml per well of 50 nM ^3H-NE to the binder medium for […], the plates have then been placed on ice and washed three times with frozen PBS. Thus, the cell monolayers have been dried and lysed with […]. The cpm (“counts” per minute) have been determined separately in the different wells in triple for each time. By cpm is meant “counts” or “hits” per minute, i.e. the nuclear disintegrations that occur in one minute. These disintegrations come from inside the cells after these have been, following the order below: 1) incubated with ^3H-NE, 2) washed with PBS to eliminate ^3H-NE remained outside the cells, 3) lysed for better detecting the radioactivity due to the internalized ^3H-NE only.
The background bond has been determined in parallel in a fourth well containing a 400 times molar excess of non-marked ^1H-NE (“cold”). For the competition study, the cells have been plated as above, and thus incubated for 1 hour with 50 nM ^3H-NE in binder medium in the absence and presence of the ^89Y-DOTA-BG chelate (compound of Formula II, 1a or MC4324) (non-radioactive analogue of the compound of Formula II, 1 or MC4324) and free binder 9 (MC4325) at different concentrations. The radioactivity has been determined separately in the wells in triple for each concentration value. The uptake of ^3H-NE has been expressed as total radioactivity percentage normalized for mg of protein.
The ability of the “cold” chelates of Formula III (10a′, MC4801) and IV (10b′, MC4803) to act as substrates of NET has been evaluated in competition experiments with the tritiated endogenous substrate ^3H-NE for the uptake by the human neuroblastoma cells SK-N-SH, which are known to express the transporter NET in large quantity. […] Therefore also in this case it is possible to prepare radio-marked versions of the chelates of Formula III (10a, MC4801) and IV (10b, MC4803) with low specific activity, as the absence of competition for NET between the chelates 10a,b (MC4801 and MC4803) and the respective free binders 13a,b (MC4802 and MC4804) doesn't compromise the bonding ability to NET of the chelates [compounds of Formula III (10a, MC4801) and IV (10b, MC4803)] also in the presence of an excess of free binders 13a,b (MC4802 and MC4804). […]

[2] = chemical stability in physiological conditions (PBS buffer, 37° C., analytical HPLC); type: physicochemical; settings: for Area 1 (chromatographic peak of compound 1a) / Area (1 + 2) (peaks of compound 1a and impurity 2): PBS, 37° C.
Procedure: The stability of the chelate ^89Y-DOTA-BG (1a, MC4324) (non-radioactive analogue of the compound of Formula II, 1 or MC4324) in physiological conditions has been evaluated by analysis with analytical HPLC (Shimadzu Nexera chromatograph equipped with a SPD-M20A PDA detector; Hypersil ODS GOLD 250×4.6 mm column; eluent: MeOH/H2O 5:95 v/v+0.02% TFA, flow: 1.0 ml/min; UV detection 214 nm) repeated at regular time intervals after having solubilized it in PBS buffer (c=0.9 mg/ml) and kept at T=37° C.
FIG. 2 depicts the HPLC plot relative to the compound ^89Y-DOTA-BG (1a) solubilized in PBS buffer (c=0.9 mg/ml) and at T=37° C. time t=0 min (A), t=21 hours (B) and t=5 days (C). […]

[3] = tested on: human neuroblastoma line SK-N-SH; test: cytotoxic effects in SK-N-SH cells; type: cell-based; settings: up to the maximum concentration tested (100 μM)
[4] = stability in human serum (release of ^90Y^3+ to serum proteins); type: in vitro ADME; settings: 32 MBq per 16 ml, T=37° C., 14 days
Procedure: The stability in serum of the […] chelate of Formula II (1 or MC4324) has been evaluated by measuring the release of the metal cation ^90Y^3+ from the chelate to the serum proteins during 14 days in which it has been kept in physiological conditions. Briefly, the ^90Y-DOTA-BG chelate of Formula II (1 or MC4324) has been incubated with human serum (32 MBq for 16 ml of serum) at T=37° C. At regular time intervals serum aliquots have been collected and, by using centrifuge filter tubes (Amicon® Ultra-4 3K, Merck Millipore) and by centrifuging at 5500 g, the serum proteins have been separated from the non-protein fraction of serum and the radioactivity of both fractions has been measured with a liquid scintillation β counter (scintillation liquid used is Perkin Elmer ULTIMA GOLD).
The stability in serum of the chelates of Formula III (10a, MC4801) and IV (10b, MC4803) has been evaluated by measuring the release of the metal cation ^90Y^3+ from the chelates to the serum proteins during 14 days in which they have been kept in physiological conditions. Briefly, the chelates of Formula III (10a, MC4801) and IV (10b, MC4803) have been incubated with human serum (32 MBq per 16 ml of serum) at T=37° C. At regular time intervals serum aliquots have been collected and, by using centrifuge filter tubes (Amicon® Ultra-4 3K, Merck Millipore) and by centrifuging at 5500 g, the serum proteins have been separated from the non-protein fraction of serum and the radioactivity of both fractions has been measured with a liquid scintillation β counter (scintillation liquid used is Perkin Elmer ULTIMA GOLD).

T1 sequence (P23975 whole entry): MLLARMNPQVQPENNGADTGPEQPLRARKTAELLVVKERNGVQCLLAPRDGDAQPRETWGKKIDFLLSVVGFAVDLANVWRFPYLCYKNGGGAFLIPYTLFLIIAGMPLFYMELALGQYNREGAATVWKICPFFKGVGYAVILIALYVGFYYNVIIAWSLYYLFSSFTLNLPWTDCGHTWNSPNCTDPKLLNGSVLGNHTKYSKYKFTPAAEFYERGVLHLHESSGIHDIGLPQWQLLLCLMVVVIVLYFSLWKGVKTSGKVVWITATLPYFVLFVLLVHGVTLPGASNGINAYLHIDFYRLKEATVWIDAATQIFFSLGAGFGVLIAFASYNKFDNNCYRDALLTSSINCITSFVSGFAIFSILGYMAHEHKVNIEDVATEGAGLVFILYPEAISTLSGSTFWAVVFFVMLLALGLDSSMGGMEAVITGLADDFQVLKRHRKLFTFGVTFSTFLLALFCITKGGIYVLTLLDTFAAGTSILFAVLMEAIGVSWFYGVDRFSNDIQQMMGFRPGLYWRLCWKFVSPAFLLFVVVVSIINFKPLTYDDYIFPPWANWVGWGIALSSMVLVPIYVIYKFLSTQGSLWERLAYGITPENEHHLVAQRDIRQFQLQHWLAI

SMILES: N=C(N)NCc1cccc(C(=O)NCCCNC(=O)CN2CCN(CC(=O)[O-])CCN(CC(=O)[O-])CCN(CC(=O)[O-])CC2)c1.[89Y+3] [10a′]
inhibition of the uptake/internalization of ^3H-NE (competition with ^3H-NE) ([1]; 50 nM ^3H-NE, 37° C.): dose-dependent inhibition
substrate of NET compared with MIBG [1]: substrate of NET analogously to MIBG, even though with lower power
substrate of NET compared with MIBG ([1]; listed as Formula III): substrates of NET analogously to MIBG
cytotoxic effects [3]: without dose-dependent cytotoxic effects
cytotoxic effects ([3]; listed as Formula III): without cytotoxic effects

SMILES: N=C(N)NCc1cccc(I)c1 [MIBG, reference compound]
competition of positive control with ^3H-NE for the internalization ([1]; non-marked MIBG at 2 μM): compete with ^3H-NE for the internalization

SMILES: NC[C@H](O)c1ccc(O)c(O)c1 [^1H-NE, reference compound]
competition of positive control with ^3H-NE for the internalization ([1]; non-marked ^1H-NE at 20 μM): compete with ^3H-NE for the internalization

SMILES: N=C(N)NCc1cccc(C(=O)NCCNC(=O)CN2CCN(CC(=O)[O-])CCN(CC(=O)[O-])CCN(CC(=O)[O-])CC2)c1.[90Y+3] [compound 1]
loss of radioactivity (^90Y^3+) in favor of the protein fraction of serum [4]: no measurable loss of radioactivity

SMILES: N=C(N)NCc1cccc(C(=O)NCCNC(=O)CN2CCN(CC(=O)O)CCN(CC(=O)O)CCN(CC(=O)O)CC2)c1 [compound 9, 2,2′,2″-(10-(2-((2-(3-(guanidinomethyl)benzamido)ethyl)amino)-2-oxoethyl)-1,4,7,10-tetraazacyclododecane-1,4,7-triyl) triacetic acid]
inhibition of the uptake/internalization of ^3H-NE (competition with ^3H-NE) ([1]; 50 nM ^3H-NE, 37° C.): completely unable to compete

More lines, main results first:

IC50 ([1]; 50 nM ^3H-NE, 1 hour incubation, 37° C., read-out: inhibition of the ^3H-NE uptake IC50): ~10 µM
inhibition of the uptake/internalization of ^3H-NE (competition with ^3H-NE) ([1]; 50 nM ^3H-NE, 37° C.): dose-dependent inhibition
chemical purity after 5 days ([2]; PBS buffer c=0.9 mg/ml, T=37° C., HPLC UV 214 nm, 5 days): higher than 99.5%
Area 1 (chromatographic peak of compound 1a) ([2]; time 0 min): 34.78
Area (1 + 2) (peaks of compound 1a and impurity 2) ([2]; time 0 min): 35.13
Area 1 (chromatographic peak of compound 1a) ([2]; time 30 min): 35.09
Area (1 + 2) (peaks of compound 1a and impurity 2) ([2]; time 30 min): 35.29
Area 1 (chromatographic peak of compound 1a) ([2]; time 1 hour 30 min): 35.07
Area (1 + 2) (peaks of compound 1a and impurity 2) ([2]; time 1 hour 30 min): 35.30
Area 1 (chromatographic peak of compound 1a) ([2]; time 5 hours): 35.13
Area (1 + 2) (peaks of compound 1a and impurity 2) ([2]; time 5 hours): 35.40
Area 1 (chromatographic peak of compound 1a) ([2]; time 21 hours): 37.15
Area (1 + 2) (peaks of compound 1a and impurity 2) ([2]; time 21 hours): 37.45
Area 1 (chromatographic peak of compound 1a) ([2]; time 5 days): 38.34
Area (1 + 2) (peaks of compound 1a and impurity 2) ([2]; time 5 days): 38.65
SMILES: N=C(N)NCc1cccc(C(=O)NCCNC(=O)CN2CCN(CC(=O)[O-])CCN(CC(=O)[O-])CCN(CC(=O)[O-])CC2)c1.[89Y+3] [1a]
substrate of NET compared with MIBG [1]: substrate of NET analogously to MIBG, even though with lower power
cytotoxic effects [3]: without dose-dependent cytotoxic effects

loss of radioactivity (^90Y^3+) in favor of the protein fraction of serum [4]: no measurable loss of radioactivity
SMILES: N=C(N)NCc1cccc(C(=O)NCCCNC(=O)CN2CCN(CC(=O)[O-])CCN(CC(=O)[O-])CCN(CC(=O)[O-])CC2)c1.[90Y+3] [10a]

loss of radioactivity (^90Y^3+) in favor of the protein fraction of serum [4]: no measurable loss of radioactivity
SMILES: N=C(N)NCc1cccc(C(=O)NCCCCNC(=O)CN2CCN(CC(=O)[O-])CCN(CC(=O)[O-])CCN(CC(=O)[O-])CC2)c1.[90Y+3] [10b]

inhibition of the uptake/internalization of ^3H-NE (competition with ^3H-NE) ([1]; 50 nM ^3H-NE, 37° C.): completely unable to compete
SMILES: N=C(N)NCc1cccc(C(=O)NCCCNC(=O)CN2CCN(CC(=O)O)CCN(CC(=O)O)CCN(CC(=O)O)CC2)c1 [13a, 2,2′,2″-(10-(2-((3-(3-(guanidinomethyl)benzamido)propyl)amino)-2-oxoethyl)-1,4,7,10-tetraazacyclododecane-1,4,7-triyl) triacetic acid]

inhibition of the uptake/internalization of ^3H-NE (competition with ^3H-NE) ([1]; 50 nM ^3H-NE, 37° C.): completely unable to compete
SMILES: CC(CCNC(=O)CN1CCN(CC(=O)O)CCN(CC(=O)O)CCN(CC(=O)O)CC1)NC(=O)c1cccc(CNC(=N)N)c1 (stereo not drawn) [13b, 2,2′,2″-(10-(2-((3-(3-(guanidinomethyl)benzamido)butyl)amino)-2-oxoethyl)-1,4,7,10-tetraazacyclododecane-1,4,7-triyl) Triacetic Acid]
